The record followed here is ChEMBL document CHEMBL3612016, “1,4-Disubstituted aromatic piperazines with high 5-HT2A/D2 selectivity: Quantitative structure-selectivity investigations, docking, synthesis and biological evaluation” (Bioorg Med Chem, 2015).

Experiment [1] addresses 5-hydroxytryptamine receptor 2A (Homo sapiens, UniProt P28223). Description: biochemical. It counts as cell-based, HEK293.
Description: Displacement of [3H]ketanserin from human 5-HT2A receptor expressed in HEK293 cell membranes by radioligand competition binding assay
In experiment [2] the target is T1, D(2) dopamine receptor (Homo sapiens, UniProt P14416). Description: biochemical. It counts as cell-based, CHO.
Description: Displacement of [3H]spiperone from human dopamine D2L receptor expressed in CHO cell membranes by radioligand competition binding assay
The next experiment has as its target D(3) dopamine receptor (Homo sapiens, UniProt P35462). Description: biochemical. It counts as cell-based, CHO.
The target in experiment [3] is T1, D(2) dopamine receptor. As to the kind of experiment: biochemical. Format: cell-based, CHO. The source holds these as a separate data set.
Description: Displacement of [3H]spiperone from human dopamine D2S receptor expressed in CHO cell membranes by radioligand competition binding assay
The target of a further experiment is T2, D(4) dopamine receptor (Homo sapiens, UniProt P21917).
T2 sequence (P21917 whole entry): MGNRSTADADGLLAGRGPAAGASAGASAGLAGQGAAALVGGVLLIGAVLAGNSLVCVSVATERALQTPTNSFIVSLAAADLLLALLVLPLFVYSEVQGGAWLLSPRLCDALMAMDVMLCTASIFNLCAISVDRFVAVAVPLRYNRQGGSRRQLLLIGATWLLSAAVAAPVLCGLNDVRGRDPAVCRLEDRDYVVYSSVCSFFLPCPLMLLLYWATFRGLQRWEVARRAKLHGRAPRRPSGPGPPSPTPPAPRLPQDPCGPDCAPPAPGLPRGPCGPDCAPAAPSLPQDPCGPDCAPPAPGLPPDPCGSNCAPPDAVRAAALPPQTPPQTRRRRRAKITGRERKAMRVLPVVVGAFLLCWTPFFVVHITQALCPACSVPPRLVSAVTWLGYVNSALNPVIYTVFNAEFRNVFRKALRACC
As to the kind of experiment: biochemical. It counts as cell-based, CHO.

For experiment [4], the target named is T1, D(2) dopamine receptor. Format: functional, cell-based, HEK293.
Another experiment has as its target D(1A) dopamine receptor (Homo sapiens, UniProt P21728). Description: biochemical. Format: cell-based, CHO.
Experiment [5] has as its target T1, D(2) dopamine receptor. It counts as cell-based. Particulars: hek293; call rule not given here.
For experiment [6], the target named is T1, D(2) dopamine receptor.
Description: Activity at dopamine D2S receptor (unknown origin) expressed in HEK293 cell membranes co-expressing Galpha protein subunit Galphai2 by [35S]GTPgammaS binding assay

D(1A) dopamine receptor, sequence (P21728 whole entry): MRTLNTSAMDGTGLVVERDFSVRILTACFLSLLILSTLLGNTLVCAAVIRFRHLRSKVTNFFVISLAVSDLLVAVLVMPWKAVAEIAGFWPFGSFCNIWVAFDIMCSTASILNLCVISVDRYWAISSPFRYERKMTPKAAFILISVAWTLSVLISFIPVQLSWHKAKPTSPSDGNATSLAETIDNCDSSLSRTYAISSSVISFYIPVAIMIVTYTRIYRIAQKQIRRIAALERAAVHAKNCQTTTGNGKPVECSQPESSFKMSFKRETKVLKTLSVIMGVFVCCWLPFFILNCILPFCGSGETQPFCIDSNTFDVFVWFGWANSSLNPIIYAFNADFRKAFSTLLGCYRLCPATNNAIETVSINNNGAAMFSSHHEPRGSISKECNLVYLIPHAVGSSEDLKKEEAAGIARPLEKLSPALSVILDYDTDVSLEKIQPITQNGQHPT
T1 sequence (P14416 whole entry): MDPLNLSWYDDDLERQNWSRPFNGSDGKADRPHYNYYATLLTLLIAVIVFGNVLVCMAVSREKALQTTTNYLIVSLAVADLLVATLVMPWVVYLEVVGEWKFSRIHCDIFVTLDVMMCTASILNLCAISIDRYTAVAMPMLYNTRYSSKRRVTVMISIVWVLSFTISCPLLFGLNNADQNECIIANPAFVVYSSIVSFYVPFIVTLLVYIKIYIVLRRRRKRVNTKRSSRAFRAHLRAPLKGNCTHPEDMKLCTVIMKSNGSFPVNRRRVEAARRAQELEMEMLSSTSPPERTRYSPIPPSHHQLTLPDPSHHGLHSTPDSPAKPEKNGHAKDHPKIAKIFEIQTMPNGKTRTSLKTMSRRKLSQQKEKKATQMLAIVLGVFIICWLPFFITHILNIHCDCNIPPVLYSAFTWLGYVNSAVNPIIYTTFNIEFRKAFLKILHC
D(3) dopamine receptor, sequence (P35462 whole entry): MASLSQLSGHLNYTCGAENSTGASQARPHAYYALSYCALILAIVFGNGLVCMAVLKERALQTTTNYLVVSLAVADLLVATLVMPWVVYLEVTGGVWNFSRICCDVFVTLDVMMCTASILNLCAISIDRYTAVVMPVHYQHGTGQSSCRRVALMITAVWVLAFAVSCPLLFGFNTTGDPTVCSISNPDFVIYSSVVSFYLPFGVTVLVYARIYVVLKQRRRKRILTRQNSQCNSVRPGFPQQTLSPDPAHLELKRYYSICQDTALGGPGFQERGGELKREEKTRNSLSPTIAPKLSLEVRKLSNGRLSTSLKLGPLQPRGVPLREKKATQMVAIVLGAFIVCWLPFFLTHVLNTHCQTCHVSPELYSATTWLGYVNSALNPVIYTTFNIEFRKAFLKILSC
5-hydroxytryptamine receptor 2A, sequence (P28223 whole entry): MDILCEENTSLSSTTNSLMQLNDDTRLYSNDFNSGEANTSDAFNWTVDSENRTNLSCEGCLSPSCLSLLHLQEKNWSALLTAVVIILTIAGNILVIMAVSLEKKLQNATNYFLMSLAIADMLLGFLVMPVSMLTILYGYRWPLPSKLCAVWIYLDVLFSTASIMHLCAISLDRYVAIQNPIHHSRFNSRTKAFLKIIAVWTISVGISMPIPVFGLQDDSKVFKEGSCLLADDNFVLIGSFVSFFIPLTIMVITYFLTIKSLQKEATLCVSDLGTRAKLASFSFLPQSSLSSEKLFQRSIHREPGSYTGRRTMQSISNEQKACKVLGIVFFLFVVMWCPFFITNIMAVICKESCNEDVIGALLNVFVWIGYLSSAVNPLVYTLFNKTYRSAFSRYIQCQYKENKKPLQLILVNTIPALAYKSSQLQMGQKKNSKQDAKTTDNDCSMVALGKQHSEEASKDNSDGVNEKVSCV
Description for D(1A) dopamine receptor: Displacement of [3H]SCH23990 from human dopamine D1 receptor expressed in CHO cell membranes by radioligand competition binding assay
Description for D(3) dopamine receptor: Displacement of [3H]spiperone from human dopamine D3 receptor expressed in CHO cell membranes by radioligand competition binding assay
Description for D(4) dopamine receptor: Displacement of [3H]spiperone from human dopamine D4.4 receptor expressed in CHO cell membranes by radioligand competition binding assay

Usually Ki stands for the equilibrium dissociation constant of an inhibitor or competing ligand from its target. Read a low Ki as higher affinity. For `COc1ccccc1N1CCN(CCCCCNC(=O)c2cnn3ccccc23)CC1`, in [1], the affinity, expressed as Ki, was 130 nM.
In [1], `COc1ccccc1N1CCN(CCCCCNC(=O)c2cc3ccccn3n2)CC1` yielded an inhibition constant Ki of 220 nM.
In turn, `COc1ccccc1N1CCN(CCNC(=O)c2cnn3ccccc23)CC1` came in with a Ki in experiment [1] of 580 nM.
As for `COc1ccccc1N1CCN(CCCCCNC(=O)c2nnn(Cc3ccccc3Br)c2C)CC1`, the results for the inhibition constant (Ki) (on D(2) dopamine receptor [2]; in experiment [1]) were 0.58 nM and 41 nM, respectively.
In the case of `CCCc1c(C(=O)NCCCCN2CCN(c3ccccc3OC)CC2)nnn1Cc1ccc(OC)cc1`, the Ki was determined as 7.1 nM at D(2) dopamine receptor [2] and 29 nM in experiment [1].
Consider `CCCc1c(C(=O)NCCCCN2CCN(c3ccccc3OC)CC2)nnn1Cc1ccccc1`, for which the inhibitory constant (Ki) on D(2) dopamine receptor [2] stood at 6.4 nM; in [1], 110 nM.
The like results for `COc1ccc(Cn2nnc(C(=O)NCCCCCN3CCN(c4ccccc4OC)CC3)c2C)cc1` were, in that order, 2.7 nM and 93 nM.
For `CCCc1c(C(=O)NCCCCCN2CCN(c3ccccc3OC)CC2)nnn1Cc1ccccc1Br`, the Ki turned out to be 0.91 nM at D(2) dopamine receptor [2] and 62 nM in experiment [1].
The like results for `COc1ccccc1N1CCN(CCCCCNC(=O)c2nnn(Cc3ccccc3)c2C)CC1` were, in that order, 2.5 nM and 140 nM.
Regarding `COc1ccccc1N1CCN(CCCCNC(=O)c2nnn(Cc3ccccc3)c2C)CC1`, the Ki was 35 nM on D(2) dopamine receptor [2] and 620 nM in experiment [1].
Take `COc1ccc(Cn2nnc(C(=O)NCCCCCN3CCN(c4cccc(Cl)c4Cl)CC3)c2C)cc1`: the inhibitory constant (Ki) was determined as 1.5 nM at D(2) dopamine receptor [2] and 3.2 nM in experiment [1].
In turn, `O=C(NCCCCN1CCN(c2cccc(Cl)c2Cl)CC1)c1cc2ccccc2[nH]1` had an inhibition constant Ki in experiment [1] of 31 nM.
In experiment [1], `COc1ccccc1N1CCN(CCCNC(=O)c2cc3ccccn3n2)CC1` registered a Ki of 560 nM.
As usually defined, the EC50 is the concentration giving half of the maximal effect. High values mean a need for much substance, low ones an effect from little substance. In the case of `COc1ccccc1N1CCN(CCCc2cn(-c3ccn4nccc4c3)nn2)CC1`, the Ki on D(2) dopamine receptor [2] worked out at 140 nM; on D(3) dopamine receptor it was 77 nM; on D(2) dopamine receptor [3], 81 nM; at D(4) dopamine receptor it was 37 nM; in [1] it was 84 nM; at D(1A) dopamine receptor it was 1700 nM. For the same compound, the EC50 is 977 nM at D(2) dopamine receptor [4] and “Not Active” at D(2) dopamine receptor [5].
Take `O=Cc1cnn2ccc(-n3cc(CCCN4CCN(c5cccc(Cl)c5Cl)CC4)nn3)cc12`: the EC50 on D(2) dopamine receptor [6] is 955 nM; on D(2) dopamine receptor [4], 191 nM; at D(2) dopamine receptor [5] it was “Not Active”. Moreover, the Ki is 6.7 nM on D(2) dopamine receptor [2]; 12 nM on D(3) dopamine receptor; 3.8 nM on D(2) dopamine receptor [3]; 130 nM at D(4) dopamine receptor; 6.9 nM in experiment [1]; 210 nM on D(1A) dopamine receptor.
For `O=Cc1cnn2ccc(-n3cc(CCCCN4CCN(c5cccc(Cl)c5Cl)CC4)nn3)cc12`, the results for the EC50 on D(2) dopamine receptor [6], at D(2) dopamine receptor [4] and on D(2) dopamine receptor [5] were 1860 nM, 692 nM and “Not Active”, respectively. Also, the inhibition constant (Ki) on D(2) dopamine receptor [2] was 110 nM; on D(3) dopamine receptor it was 4.4 nM; at D(2) dopamine receptor [3], 51 nM; on D(4) dopamine receptor, 1400 nM; in [1], 15 nM; at D(1A) dopamine receptor, 1500 nM.
`O=Cc1cnn2ccc(-n3cc(CCN4CCN(c5cccc(Cl)c5Cl)CC4)nn3)cc12`: the values for the half-maximal effective concentration (EC50) at D(2) dopamine receptor [6], at D(2) dopamine receptor [4] and on D(2) dopamine receptor [5] were 3550 nM, 200 nM and “Not Active”, respectively. The inhibition constant (Ki) at D(2) dopamine receptor [2] amounted to 11 nM; at D(3) dopamine receptor, 32 nM; on D(2) dopamine receptor [3], 8 nM; at D(4) dopamine receptor, 3000 nM; in [1] it was 50 nM; on D(1A) dopamine receptor, 160 nM.
Turning to `COc1ccccc1N1CCN(CCc2cn(-c3ccn4ncc(C=O)c4c3)nn2)CC1`, the EC50 at D(2) dopamine receptor [6] was 4370 nM; on D(2) dopamine receptor [4], 550 nM; on D(2) dopamine receptor [5], “Not Active”. Moreover, the Ki came out at 18 nM at D(2) dopamine receptor [2]; 8.5 nM on D(3) dopamine receptor; 9.4 nM on D(2) dopamine receptor [3]; 98 nM on D(4) dopamine receptor; 89 nM in experiment [1]; 620 nM at D(1A) dopamine receptor.
On to `Clc1cccc(N2CCN(CCc3cn(-c4ccn5nccc5c4)nn3)CC2)c1Cl`, for which the concentration for a half-maximal effect (EC50) was 1100 nM at D(2) dopamine receptor [6], 479 nM on D(2) dopamine receptor [4] and “Not Active” at D(2) dopamine receptor [5]. In addition, the Ki was determined as 22 nM at D(2) dopamine receptor [2]; 2.2 nM at D(3) dopamine receptor; 10 nM at D(2) dopamine receptor [3]; 180 nM at D(4) dopamine receptor; 7.1 nM in [1]; 120 nM on D(1A) dopamine receptor.
For `Clc1cccc(N2CCN(CCCc3cn(-c4ccn5nccc5c4)nn3)CC2)c1Cl`, the Ki at D(2) dopamine receptor [2] came out at 130 nM; at D(3) dopamine receptor it was 8.5 nM; at D(2) dopamine receptor [3] it was 54 nM; at D(4) dopamine receptor, 42 nM; in experiment [1] it was 5.3 nM; at D(1A) dopamine receptor it was 110 nM. Moreover, the values for the EC50 at D(2) dopamine receptor [4] and at D(2) dopamine receptor [5] were 1120 nM and “Not Active”, respectively.
On to `Clc1cccc(N2CCN(CCCCc3cn(-c4ccn5nccc5c4)nn3)CC2)c1Cl`, for which the Ki is 23 nM at D(2) dopamine receptor [2]; 0.31 nM on D(3) dopamine receptor; 7.3 nM at D(2) dopamine receptor [3]; 76 nM on D(4) dopamine receptor; 0.64 nM in experiment [1]; 110 nM at D(1A) dopamine receptor. Besides, the half-maximal effective concentration (EC50) on D(2) dopamine receptor [4] was 741 nM; at D(2) dopamine receptor [5] it was “Not Active”.
As for `Cc1c(C(=O)NCCCCN2CCN(c3cccc(Cl)c3Cl)CC2)nnn1Cc1ccccc1`, the Ki is 14 nM on D(2) dopamine receptor [2] and 7.4 nM in [1].
`COc1ccccc1N1CCN(CCCCNC(=O)c2nnn(Cc3ccccc3Br)c2C)CC1`: the inhibitory constant (Ki) turned out to be 17 nM on D(2) dopamine receptor [2] and 150 nM in [1].
Take `CCCc1c(C(=O)NCCCCN2CCN(c3ccccc3OC)CC2)nnn1Cc1ccccc1Br`: the Ki at D(2) dopamine receptor [2] amounted to 3 nM; in experiment [1] it was 44 nM.
For `CCCc1c(C(=O)NCCCCN2CCN(c3cccc(Cl)c3Cl)CC2)nnn1Cc1ccccc1`, in that order: 6.4 nM and 2.5 nM.
Compound `COc1ccc(Cn2nnc(C(=O)NCCCCN3CCN(c4ccccc4OC)CC3)c2C)cc1` returned a Ki in [1] of 140 nM.
